Measured values from ChEMBL document CHEMBL3046054, “Chemico-biological investigation of rhizome essential oil of Zingiber morannative to Northeast India” (Med Chem Res, 2013).
≈ marks a conversion by molar mass, not a printed value. Calls of active or inactive are those of the source. The rule behind the calls is not given here.

How the values were obtained:
HeLa [1] = test: Induction of apoptosis in Homo sapiens (human) HeLa cells assessed as membrane blebbing at <40 ug/ml after 24 hr by light microscopic analysis; type: functional, cell-based
HeLa [2] = test: Induction of apoptosis in Homo sapiens (human) HeLa cells assessed as detachment from substratum at <40 ug/ml after 24 hr by light microscopic analysis; type: functional, cell-based
HeLa [3] = test: Induction of apoptosis in Homo sapiens (human) HeLa cells assessed as loss of cell to cell contact at <40 ug/ml after 24 hr by light microscopic analysis; type: functional, cell-based
HeLa [4] = test: Cytotoxicity against Homo sapiens (human) HeLa cells assessed as cell death at 10 to 100 ug/ml after 48 hr by light microscopic analysis; type: functional, cell-based
HeLa [5] = test: Induction of apoptosis in Homo sapiens (human) HeLa cells assessed as rounded cells at 10 to 100 ug/ml after 48 hr by light microscopic analysis; type: functional, cell-based
HeLa [6] = test: Induction of apoptosis in Homo sapiens (human) HeLa cells assessed as floating cells at 10 to 50 ug/ml after 24 hr by light microscopic analysis; type: functional, cell-based
HeLa [7] = test: Induction of apoptosis in Homo sapiens (human) HeLa cells assessed as rounded cells at 10 to 50 ug/ml after 24 hr by light microscopic analysis; type: functional, cell-based
HeLa [8] = test: Cytotoxicity against Homo sapiens (human) HeLa cells up to 3 days by MTT assay; type: functional, cell-based; details: for IC50: 72 h
HeLa [9] = test: Growth inhibition of Homo sapiens (human) HeLa cells at 10 to 30 ug/ml up to 3 days by MTT assay; type: functional
HeLa [10] = test: Induction of apoptosis in Homo sapiens (human) HeLa cells assessed as fragmented nuclei at 10 to 100 ug/ml after 24 hr by acridine orange/ethidium bromide-based inverted fluorescence microscopic analysis; type: functional, cell-based
HeLa [11] = test: Cytotoxicity against Homo sapiens (human) HeLa cells assessed as decrease in cell viability at 10 to 100 ug/ml after 24 hr by acridine orange/ethidium bromide-based inverted fluorescence microscopic analysis; type: functional
HeLa [12] = test: Induction of necrosis in Homo sapiens (human) HeLa cells assessed as dissolution of cytoplasmic membrane at >50 ug/ml after 24 hr by light microscopic analysis; type: functional, cell-based
HeLa [13] = test: Induction of necrosis in Homo sapiens (human) HeLa cells assessed as chromatin flocculation at >50 ug/ml after 24 hr by light microscopic analysis; type: functional, cell-based
HeLa [14] = test: Induction of necrosis in Homo sapiens (human) HeLa cells assessed as dissolution of nuclear membrane at >50 ug/ml after 24 hr by light microscopic analysis; type: functional, cell-based
HeLa [15] = test: Induction of necrosis in Homo sapiens (human) HeLa cells assessed as increase in cytoplasmic vacuolization at >50 ug/ml after 24 hr by light microscopic analysis; type: functional, cell-based
HeLa [16] = test: Induction of necrosis in Homo sapiens (human) HeLa cells assessed as increase in cytoplasmic volume at >50 ug/ml after 24 hr by light microscopic analysis; type: functional, cell-based
HeLa [17] = test: Induction of necrosis in Homo sapiens (human) HeLa cells assessed as increase in nucleus volume at >50 ug/ml after 24 hr by light microscopic analysis; type: functional, cell-based
HeLa [18] = test: Induction of apoptosis in Homo sapiens (human) HeLa cells assessed as apoptotic bodies at <40 ug/ml after 24 hr by light microscopic analysis; type: functional, cell-based
HeLa [19] = test: Induction of apoptosis in Homo sapiens (human) HeLa cells assessed as apoptotic bodies at <55 ug/ml after 24 hr by light microscopic analysis; type: functional, cell-based
HeLa [20] = test: Induction of apoptosis in Homo sapiens (human) HeLa cells assessed as membrane blebbing at <55 ug/ml after 24 hr by light microscopic analysis; type: functional, cell-based
HeLa [21] = test: Induction of apoptosis in Homo sapiens (human) HeLa cells assessed as detachment from substratum at <55 ug/ml after 24 hr by light microscopic analysis; type: functional, cell-based
HeLa [22] = test: Induction of apoptosis in Homo sapiens (human) HeLa cells assessed as loss of cell to cell contact at <55 ug/ml after 24 hr by light microscopic analysis; type: functional, cell-based

SMILES | Activity (HeLa [1]) | Activity (HeLa [2]) | Activity (HeLa [3]) | Activity (HeLa [4]) | Activity (HeLa [5]) | Activity (HeLa [6]) | Activity (HeLa [7]) | Activity (HeLa [8]) | IC50 (HeLa [8]) [µg/mL] | growth inhibition (GI) (HeLa [9]) [%] | Activity (HeLa [10]) | Activity (HeLa [11]) | Activity (HeLa [12]) | Activity (HeLa [13]) | Activity (HeLa [14]) | Activity (HeLa [15]) | Activity (HeLa [16]) | Activity (HeLa [17]) | Activity (HeLa [18]) | also measured
CC(C)=CCCC(C)=CC=O | Active | Active | Active | Active | Active | Active | Active | Dose-dependent effect | 39.6 (≈ 260 µM) | 60 | Active | Active | Active | Active | Active | Active | Active | Active | Active | –
C=C1C2CCC(C2)C1(C)C (configuration not stated) [CAMPHENE] | Active | Active | Active | Active | Active | Active | Active | Dose-dependent effect | 38.5 (≈ 283 µM) | 60 | Active | Active | Active | Active | Active | Active | Active | Active | Active | –
C=CC(C)(O)CCC=C(C)C (configuration not stated) [LINALOOL] | – | – | – | Active | Active | Active | Active | Dose-dependent effect | 55.4 (≈ 359 µM) | 60 | Active | Active | Active | Active | Active | Active | Active | Active | – | Activity (HeLa [19]): Active; Activity (HeLa [20]): Active; Activity (HeLa [21]): Active; Activity (HeLa [22]): Active
